{"source": "patent US8178543B2", "about": "“Bi- and tricyclic fused pyrimidines as tyrosine kinase inhibitors” (Takeda Pharmaceutical Company Limited, priority 2004, dated 2012)", "key": {"[1]": {"target": "T1, EGF receptor intracellular domain protein (Homo sapiens, UniProt P00533)", "T1 construct": "encoding EGF receptor intracellular domain region, so that the protein contains an N-terminal Flag tag; made in house; host or cells: SF-21 insect cells, recombinant baculovirus BAC-EGFR", "T1 sequence (P00533 669-1210 limits assumed)": "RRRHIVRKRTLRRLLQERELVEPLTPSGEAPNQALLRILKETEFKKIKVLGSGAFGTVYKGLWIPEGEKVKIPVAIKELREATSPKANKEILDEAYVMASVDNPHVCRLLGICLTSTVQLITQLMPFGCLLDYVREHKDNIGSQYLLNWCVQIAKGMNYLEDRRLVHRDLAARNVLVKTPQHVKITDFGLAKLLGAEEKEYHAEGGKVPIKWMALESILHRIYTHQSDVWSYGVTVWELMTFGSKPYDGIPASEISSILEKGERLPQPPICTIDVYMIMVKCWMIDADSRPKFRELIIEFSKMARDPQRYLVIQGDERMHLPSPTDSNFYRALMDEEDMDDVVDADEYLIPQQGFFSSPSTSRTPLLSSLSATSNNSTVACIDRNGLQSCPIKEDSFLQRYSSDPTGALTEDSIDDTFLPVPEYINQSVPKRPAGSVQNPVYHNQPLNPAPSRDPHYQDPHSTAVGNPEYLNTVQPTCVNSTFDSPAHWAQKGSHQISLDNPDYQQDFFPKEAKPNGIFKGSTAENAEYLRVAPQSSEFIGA", "assay": "Determination of EGF receptor kinase inhibitory activity", "format": "biochemical", "settings": "1.0 μM test compound; biotinyl-poly-Glu:Tyr (4:1), AlphaScreen, 25° C., 10 min; read-out: EGF receptor kinase Inhibitory rate (%) at 1.0 μM", "experimental": "Human EGF receptor gene was cloned by RT-PCR using total RNA prepared from A431 cells as a template. The primer for RT-PCR was prepared from nucleotide sequence (Genbank Accession XM—167493) information of EGF receptor gene by adding a nucleotide sequence encoding flag peptide and a restriction enzyme recognition sequence to a nucleotide sequence (2182-3810 of Genbank Accession XM—167493) encoding EGF receptor intracellular domain region, so that the protein contains an N-terminal Flag tag. The primer nucleotide sequence is shown below.\nThe RT reaction was conducted using SuperScript First-Strand Synthesis System for RT-PCR (Invitrogen) and the PCR reaction was conducted using a KOD-plus kit (TOYOBO). The obtained PCR product was electrophoresed on agarose gel (1%), the DNA fragment amplified by PCR was recovered from the gel, and then digested with restriction enzymes Sal I and Sph I. The DNA treated with the restriction enzymes was electrophoresed on agarose gel (1%), and the obtained DNA fragment was recovered and ligated to plasmid pFASTBAC1 (Invitrogen) digested with restriction enzymes Sal I and Sph I to give expression plasmid pFB-EGFR. The nucleotide sequence of insertion fragment was confirmed and found to be identical with the nucleotide sequence (2182-3810 of Genbank Accession XM—167493) of EGFR intracellular domain. Furthermore, using BAC-TO-BAC Baculovirus Expression System (Invitrogen), virus stock BAC-EGFR of recombinant baculovirus was prepared.\nSF-21 cells were sown at 1×10^6 cells/mL to Sf-900II SFM medium (1 L, Invitrogen) containing 10% fetal bovine serum (trace), 50 mg/L gentamicin (Invitrogen) and 0.1% Pluronic F-68 (Invitrogen), and shaking culture was performed using a 2 L volume Erlenmeyer flask at 27° C., 100 rpm. After culturing for 24 hrs, recombinant baculovirus BAC-EGFR (13.4 mL) was added, and the mixture was further cultured for 3 days. The culture medium was centrifuged at 2,000 rpm for 5 min. to give virus-infected cells. The infected cells were washed with a phosphate buffered saline (Invitrogen), centrifuged under the same conditions, and the cells were preserved at −80° C. The cryopreserved cells were thawed in ice, suspended in buffer A (50 mM Tris buffer (30 mL, pH7.4) containing 20% glycerol, 0.15 M NaCl) supplemented with Complete Protease Inhibitor (Boehringer), and ruptured 3 times with a Polytron homogenizer (Kinematica) at 20,000 rpm for 30 sec. The ruptured medium was clarified by centrifugation at 40,000 rpm for 30 min. and filtered with a 0.45 μm filter. The filtrate was passed through a column packed with Anti-FLAG M2 Affinity Gel (4 mL, Sigma) at a flow rate of about 0.5 mL/min. The column was washed with buffer A, and eluted with buffer A containing 100 μg/mL of FLAG peptide. The eluate was concentrated with Vivaspin 20 (Vivascience) having a molecular weight cut off of 30K. The buffer of this concentrate was exchanged using NAPE 25 column (Amersham Bioscience) equilibrated with buffer A. The fractions containing EGF receptor intracellular domain protein were collected, glycerol was added to the final concentration of 50% and cryopreserved at −80° C.\nA test compound dissolved in dimethyl sulfoxide (DMSO) was diluted with a buffer (50 mM Tris-HCl (pH 7.5), 5 mM MgCl2, 5 mM MnCl2, 2 mM dithiothreitol, 0.01% Tween-20). To this compound solution (5 μL) was added a buffer (10 μL) containing 250 ng/mL of EGF receptor intracellular domain protein and 250 ng/mL of biotin labeled polypeptide biotinyl-poly-Glu:Tyr (4:1) (CIS bio International). […]"}, "[2]": {"test_system": "human breast cancer cell BT-474", "assay": "Inhibitory action on breast cancer cell BT-474 proliferation in vitro", "format": "cell-based", "settings": "120 h, BT-474 cells, cultured 5 days, SRB staining", "experimental": "A suspension of human breast cancer cell BT-474 (100 μl (6,000 cells)) were sown to a 96-well microplate and cultured in an incubator (37° C., 5% carbon dioxide). On the following day, 100 μl of a solution of each test compound, which was previously diluted 2-fold, was added, and the cells were cultured for 5 days. After the culture medium containing the test compound was removed, the cells were washed and fixed with 50% trichloroacetic acid, after which a 0.4% (w/v) SRB solution (dissolved in 1% acetic acid) was added to fix and stain the cell protein (Skehan et al., Journal of the National Cancer Institute, Vol. 82, pp. 1107-1112, 1990). After washing with a 1% acetic acid solution, 100 μl of an extract (10 mM Tris solution) was added to extract the pigment, and absorbance was measured at an absorption wavelength of 550 nm to quantify the amount of cells as protein content. Taking as 100% the protein content for the control group, which received no test compound solution, the ratio of the residual protein content for each treatment group was determined, and the compound concentration required to achieve 50% suppression of the residual cell content relative to the control (IC50 value) was calculated."}}}
{"smiles": "CN(C)C/C=C/C(=O)NC/C=C/c1cc2ncnc(Nc3ccc(OCc4cccc(F)c4)c(Cl)c3)c2[nH]1", "note": "[Example 92, (2E)-N-{(2E)-3-[4-({3-chloro-4-[(3-fluorobenzyl)oxy]phenyl}amino)-5H-pyrrolo[3,2-d]pyrimidin-6-yl]prop-2-enyl}-4-(dimethylamino)but-2-enamide]", "values": [{"measurement": "inhibition at 1 µM", "setting": "[1]", "result": 98, "unit": "%"}, {"measurement": "IC50", "setting": "[2]", "result": "< 100", "unit": "nM"}]}
{"smiles": "CC(C)(C(=O)NCCn1ccc2ncnc(Nc3ccc(Oc4cccc(C(F)(F)F)c4)c(Cl)c3)c21)S(C)(=O)=O", "note": "[Example 169, N-{2-[4-({3-chloro-4-[3-(trifluoromethyl)phenoxy]phenyl}amino)-5H-pyrrolo[3,2-d]pyrimidin-5-yl]ethyl}-2-methyl-2-(methylsulfonyl)propanamide]", "values": [{"measurement": "IC50", "setting": "[2]", "result": "< 100", "unit": "nM"}]}
{"smiles": "CC(C)(C)S(=O)(=O)CCOCCn1ccc2ncnc(Nc3ccc(Oc4cccc(C(F)(F)F)c4)c(Cl)c3)c21", "note": "[Example 176, 5-{2-[2-(tert-butylsulfonyl)ethoxy]ethyl}-N-{3-chloro-4-[3-(trifluoromethyl)phenoxy]phenyl}-5H-pyrrolo[3,2-d]pyrimidin-4-amine]", "values": [{"measurement": "IC50", "setting": "[2]", "result": "< 100", "unit": "nM"}]}
